Assay: Release test in artificial intestinal juice
Type: physicochemical
Details: for Dissolution rate of core material after 1 h / Dissolution rate of core material after 2 h / Dissolution rate of core material after 3 h / Dissolution rate of core material after 4 h: artificial intestinal juice, 37° C., 100 r/min; for Retention rate of NADH before test: before artificial intestinal juice test
Description: A Tablet Four-Usage Tester was used for testing. The tester was started for preheating. The temperature was set at 37° C. A basket shaft and a basket were installed. A positioning ball used for positioning (marked) was put into a dissolution cup (900 mL of prepared artificial intestinal juice was added into each dissolution cup) and fixed. 200 mg of sample 2 and 200 mg of sample 5 in the examples as well as 200 mg of corresponding core materials were taken respectively, wrapped with gauze and put into corresponding baskets. After being rotated at 100 r/min for 1, 2, 3 and 4 h, 1 mL of liquid was taken from each of the dissolution cups. The contents of the core materials in the samples were detected by the same detection method as in Example 1.
Retention rate of core material=(Theoretical embedding amount of core material in sample-Content of core material in artificial intestinal juice detected)/Theoretical embedding amount of core material in sample. The theoretical embedding amount of the core material in the sample is the added amount of the core material in the sample.

Compound	Dissolution rate of core material after 1 h	Dissolution rate of core material after 2 h	Dissolution rate of core material after 3 h	Dissolution rate of core material after 4 h	Retention rate of NADH before test
NC(=O)C1=CN([C@@H]2O[C@H](COP(=O)(O)OP(=O)(O)OC[C@H]3O[C@@H](n4cnc5c(N)ncnc54)[C@H](O)[C@@H]3O)[C@@H](O)[C@H]2O)C=CC1 [NADH, reduced nicotinamide adenine dinucleotide]	99.6%	99.5%	99.4%	99.5%	100%
NC(=O)C1=CN([C@@H]2O[C@H](COP(=O)(O)OP(=O)(O)OC[C@H]3O[C@@H](n4cnc5c(N)ncnc54)[C@H](OP(=O)(O)O)[C@@H]3O)[C@@H](O)[C@H]2O)C=CC1 [NADPH, reduced nicotinamide adenine dinucleotide phosphate]	98.4%	99.7%	99.3%	99.1%	100%

Source: patent US11744804B2, “Microcapsule powder stable in gastric acid, method for preparing same, and use thereof” (HOBOOMLIFE BIO-TECHNOLOGY (SHENZHEN) CO., LTD., priority 2021, dated 2023)
